One data set relates to Scirpus juncoides. The data set can be described thus: Paddy field treatment (Test Example 3). It is filed as in vivo. To be noted: paddy pot, submerged 4 cm, dropped on water surface 10th day after transplantation, 1 kg active ingredient per hectare, evaluated 21st day. In outline: (§1)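 Pot test, flooded paddy soil (4 cm water); weeds sown, 2-leaf rice (Koshihikari) transplanted. Day 10 post-transplant: WP dropped on water, 1 kg a.i./ha. Score index at 21 d after application; higher = stronger herbicidal effect.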

In the next data set the test system is Monochoria vaginalis. Briefly: Paddy field treatment (Test Example 3). The data set is classed as in vivo. To be noted: paddy pot, submerged 4 cm, dropped on water surface 10th day after transplantation, 1 kg active ingredient per hectare, evaluated 21st day. The essentials:
as §1

A further data set has as its system Ammannia multiflora. The data set can be described thus: Paddy field treatment (Test Example 3). To be noted: paddy pot, submerged 4 cm, dropped on water surface 10th day after transplantation, 1 kg active ingredient per hectare, evaluated 21st day. The data set is classed as in vivo. In outline: as §1
The test system of the next data set is Echinochloa spp. Briefly: Paddy field treatment (Test Example 3). It is filed as in vivo, Echinochloa crusgalli. To be noted: paddy pot, submerged 4 cm, dropped on water surface 10th day after transplantation, 1 kg active ingredient per hectare, evaluated 21st day. The essentials:
as §1

The test system of data set [1] is soybean (Glycine max). The data set can be described thus: Upland field foliage treatment (Test Example 1), crop. It is filed as in vivo. To be noted: foliage treatment 14th day after sowing, 1 kg active ingredient per hectare, evaluated 21st day, lower index = higher safety. The essentials: (§2)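 Read-out is a visual index scored 21 days after treatment. Higher values mean more herbicidal effect on weeds and lower values mean better crop safety. Plants were raised from seed in upland soil and received a leaf-surface spray of 1 kg active ingredient per hectare at 14 days.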

Data set [2] relates to wheat (Triticum aestivum). Described as above. The data set is classed as in vivo. The conditions noted are these: foliage treatment 14th day after sowing, 1 kg active ingredient per hectare, evaluated 21st day, lower index = higher safety. In outline:
as §2

The subject of data set [3] is rice (Oryza sative, variety: Koshihikari). Briefly: Paddy field treatment (Test Example 3), crop. The data set is classed as in vivo, Oryza sativa. The conditions noted are these: transplanted rice two-leaf period, water surface treatment 10th day after transplantation, 1 kg active ingredient per hectare, evaluated 21st day, lower index = higher safety. The essentials:
as §1

Data set [4] deals with Setaria viridis. The data set can be described thus: Upland soil treatment (Test Example 2). The data set is classed as in vivo. To be noted: soil surface treatment next day after sowing, wettable powder, 1 kg active ingredient per hectare, evaluated 21st day after application. In outline: (§3)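 Applies a soil-surface, pre-emergence spray of 1 kg active ingredient/ha (wettable powder in water) one day after sowing; weed control and crop injury are rated on an index scale three weeks later.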

In data set [5] the test system is Stellaria media. The data set can be described thus: Upland soil treatment (Test Example 2). It is filed as in vivo. To be noted: soil surface treatment next day after sowing, wettable powder, 1 kg active ingredient per hectare, evaluated 21st day after application. The essentials:
as §3

For data set [6], the system named is Chenopodium album. Briefly: Upland soil treatment (Test Example 2). It is filed as in vivo. To be noted: soil surface treatment next day after sowing, wettable powder, 1 kg active ingredient per hectare, evaluated 21st day after application. In outline:
as §3

Data set [7] concerns Digitaria adscendens. Briefly: Upland soil treatment (Test Example 2). It is filed as in vivo. To be noted: soil surface treatment next day after sowing, wettable powder, 1 kg active ingredient per hectare, evaluated 21st day after application. The essentials: as §3
Data set [8] concerns Setaria viridis. Briefly: Upland field foliage treatment (Test Example 1). The data set is classed as in vivo. The conditions noted are these: foliage treatment 14th day after sowing, wettable powder, 1 kg active ingredient per hectare, evaluated 21st day after application. In outline: as §2
Data set [9] concerns Stellaria media. Briefly: Upland field foliage treatment (Test Example 1). The data set is classed as in vivo. To be noted: foliage treatment 14th day after sowing, wettable powder, 1 kg active ingredient per hectare, evaluated 21st day after application. The essentials: as §2
The test system of data set [10] is Chenopodium album. The data set can be described thus: Upland field foliage treatment (Test Example 1). The conditions noted are these: foliage treatment 14th day after sowing, wettable powder, 1 kg active ingredient per hectare, evaluated 21st day after application. It is filed as in vivo. The essentials:
as §2

Data set [11] relates to Digitaria adscendens. The data set can be described thus: Upland field foliage treatment (Test Example 1). The data set is classed as in vivo. The conditions noted are these: foliage treatment 14th day after sowing, wettable powder, 1 kg active ingredient per hectare, evaluated 21st day after application. The essentials:
as §2

The test system of data set [12] is soybean (Glycine max). Briefly: Upland soil treatment (Test Example 2), crop. It is filed as in vivo. The conditions noted are these: soil surface treatment next day after sowing, 1 kg active ingredient per hectare, evaluated 21st day, lower index = higher safety. The essentials: as §3
The subject of data set [13] is wheat (Triticum aestivum). The data set can be described thus: Upland soil treatment (Test Example 2), crop. It is filed as in vivo. To be noted: soil surface treatment next day after sowing, 1 kg active ingredient per hectare, evaluated 21st day, lower index = higher safety. In outline:
as §3

On to `COC=C(CCn1cc(C)c(-c2ccccc2)n1)C(=O)OC` [Compound 47], for which the “Herbicidal activity Scirpus juncoides” value in the data set with Scirpus juncoides is 3 (herbicidal effect of not less than 50% by weight and less than 70% by weight). Besides, the “Herbicidal activity Monochoria vaginalis” value with Monochoria vaginalis is 2 (herbicidal effect of not less than 30% by weight and less than 50% by weight). Besides, in the data set with Ammannia multiflora, the “Herbicidal activity Ammannia multiflora” value is 2 (herbicidal effect of not less than 30% by weight and less than 50% by weight). The “Herbicidal activity Echinochloa spp.” value in the data set with Echinochloa spp. was 3 (herbicidal effect of not less than 50% by weight and less than 70% by weight). Besides, the “Herbicidal activity Glycine max” value was 0 (herbicidal effect of not less than 0% by weight and less than 10% by weight) in the data set on soybean (Glycine max) [1]; 0 (herbicidal effect of not less than 0% by weight and less than 10% by weight) in the data set with soybean (Glycine max) [12]. For the same compound, the “Herbicidal activity Triticum aestivum” value is 0 (herbicidal effect of not less than 0% by weight and less than 10% by weight) in data set [2]; 0 (herbicidal effect of not less than 0% by weight and less than 10% by weight) in data set [13]. Besides, the “Herbicidal activity Oryza sativa” value in data set [3] is 0 (herbicidal effect of not less than 0% by weight and less than 10% by weight). Further, the “Herbicidal activity Setaria viridis” value with Setaria viridis [4] was 4 (herbicidal effect of not less than 70% by weight and less than 90% by weight); in the data set on Setaria viridis [8] it was 3 (herbicidal effect of not less than 50% by weight and less than 70% by weight). Further, the “Herbicidal activity Stellaria media” value in the data set on Stellaria media [5] was 3 (herbicidal effect of not less than 50% by weight and less than 70% by weight); in the data set with Stellaria media [9], 4 (herbicidal effect of not less than 70% by weight and less than 90% by weight). The “Herbicidal activity Chenopodium album” value is 4 (herbicidal effect of not less than 70% by weight and less than 90% by weight) with Chenopodium album [6]; 4 (herbicidal effect of not less than 70% by weight and less than 90% by weight) with Chenopodium album [10]. Besides, the “Herbicidal activity Digitaria adscendens” value with Digitaria adscendens [7] is 4 (herbicidal effect of not less than 70% by weight and less than 90% by weight); with Digitaria adscendens [11] it was 3 (herbicidal effect of not less than 50% by weight and less than 70% by weight).
Turning to `CO/C=C(/C(=O)OC)n1nc(-c2cccc(Cl)c2)c(Cl)c1C` [Control, reference compound], the “Herbicidal activity Scirpus juncoides” value in the data set with Scirpus juncoides was 0 (herbicidal effect of not less than 0% by weight and less than 10% by weight). Moreover, the “Herbicidal activity Monochoria vaginalis” value in the data set with Monochoria vaginalis is 0 (herbicidal effect of not less than 0% by weight and less than 10% by weight). The “Herbicidal activity Ammannia multiflora” value in the data set on Ammannia multiflora is 0 (herbicidal effect of not less than 0% by weight and less than 10% by weight). Further, the “Herbicidal activity Echinochloa spp.” value in the data set on Echinochloa spp. is 0 (herbicidal effect of not less than 0% by weight and less than 10% by weight). In addition, the “Herbicidal activity Glycine max” value in the data set with soybean (Glycine max) [1] is 0 (herbicidal effect of not less than 0% by weight and less than 10% by weight); in the data set on soybean (Glycine max) [12], 0 (herbicidal effect of not less than 0% by weight and less than 10% by weight). Moreover, the “Herbicidal activity Triticum aestivum” value is 0 (herbicidal effect of not less than 0% by weight and less than 10% by weight) in data set [2]; 0 (herbicidal effect of not less than 0% by weight and less than 10% by weight) in data set [13]. For the same compound, the “Herbicidal activity Oryza sativa” value in data set [3] is 0 (herbicidal effect of not less than 0% by weight and less than 10% by weight). For the same compound, the “Herbicidal activity Setaria viridis” value in the data set with Setaria viridis [4] was 0 (herbicidal effect of not less than 0% by weight and less than 10% by weight); in the data set with Setaria viridis [8] it was 0 (herbicidal effect of not less than 0% by weight and less than 10% by weight). For the same compound, the “Herbicidal activity Stellaria media” value in the data set with Stellaria media [5] is 0 (herbicidal effect of not less than 0% by weight and less than 10% by weight); in the data set with Stellaria media [9], 0 (herbicidal effect of not less than 0% by weight and less than 10% by weight). Further, the “Herbicidal activity Chenopodium album” value is 0 (herbicidal effect of not less than 0% by weight and less than 10% by weight) in the data set with Chenopodium album [6]; 0 (herbicidal effect of not less than 0% by weight and less than 10% by weight) with Chenopodium album [10]. The “Herbicidal activity Digitaria adscendens” value in the data set with Digitaria adscendens [7] was 0 (herbicidal effect of not less than 0% by weight and less than 10% by weight); in the data set with Digitaria adscendens [11], 0 (herbicidal effect of not less than 0% by weight and less than 10% by weight).

(Values after US6809065B2, “Herbicide containing substituted pyrazole derivative as active ingredient” (SDS Biotech K.K., priority 2001, dated 2004).)
